From patent EP4796176A2, “METHOD OF ALLEVIATING JOINT PAIN” (OrthoTrophix, Inc., priority 2017, dated 2026) come the findings set out here.

The data set deals with subjects with bilateral patello-femoral knee osteoarthritis. As to the kind of experiment: Randomized double-blind placebo-controlled clinical study, safety and tolerability. It counts as in vivo, human. As for the experimental part:
A multicenter, randomized double-blind, placebo controlled study was designed to investigate the safety, tolerability, pharmacokinetics, and efficacy of TPX-100 administered in four weekly doses in subjects with bilateral patello-femoral knee osteoarthritis. The study was conducted under an open IND (investigational new drug application) at CDER (Center for Drug Evaluation and Research) of the U.S. FDA (The United States Food and Drug Administration) in compliance with GCP (Good Clinical Practice) and ICH (International Conference on Harmonization of Technical Requirements for Registration of Pharmaceuticals for Human Use) guidelines. Eighteen (18) orthopedic, rheumatologic and family practice centers in the U.S. participated in the study.
The study was divided into Part A and Part B. The Part A was to evaluate safety of intra-articular (I.A.) administration of TPX-100 at different dosing levels (20, 50, 100, or 200mg per injection in sequential cohorts) in the subjects with osteoarthritis of the knees and to select a dose adopted for the Part B. The Part B was to evaluate safety and efficacy of the selected dose of TPX-100.
Subjects in Part A enrolled in sequential cohorts were randomized to receive 20, 50, 100 or 200 mg of TPX-100 in one knee and identical placebo in the contralateral knee. Active and placebo assignments were randomized, with subject, site, and sponsor blinded as to treatment assignment. A Safety Review Committee (SRC) evaluated safety in each dosing cohort. The SRC assessed safety and dose-limiting toxicities, if evident, and determined whether the next higher dosing regimen might be enrolled. Part A were completed and analyzed with regard to safety prior to dose selection and initiation of Part B. […]
The 200mg dose was selected for Part B based on review and approval by the SRC. […] The combined final number of the subjects that were analyzed for the drug efficacy for 200mg dose of TPX-100 was 93.
On the first dosing day, the randomized subjects were assessed for their general health conditions by physical examinations and vital signs. […] Subjects were monitored for adverse events during the injections and for a few hours after the injections. Vital signs were also monitored after the injections.
Subjects returned to their respective study sites at 3, 6 and 12 months after the first dosing day for follow-up evaluations. In addition, the study sites monitored the subject's condition through telephone contact 9 months after the first dosing day. During the 3, 6, and 12 months post-treatment follow-up on-site visits, subjects were evaluated by physical examination, vital signs, serum chemistry, as well as KOOS. Adverse events and concomitant medications were also recorded. […]

Where no end group is shown, it is not given here.

TDLQERGDNDISPFSGDGQPFKD-NH2 [TPX-100]: the dose-limiting toxicities entry (Part A, 20, 50, 100 and 200 mg per injection, four weekly intra-articular injections) was “no dose-limiting toxicities”. Also, for the setting “throughout the study period”, the severe adverse events entry is “no severe adverse events likely or possibly related to the drug treatment” and the treatment-related adverse events result is given as “mild or moderate, transient”. Besides, the safety and tolerability result (throughout the study period (12 months)) was “safe and well tolerated”.
